Measured values: US9347077B2, “Over-expression of a putative oxidoreductase (UcpA) for increasing furfural or 5-hydroxymethylfurfural tolerance” (UNIVERSITY OF FLORIDA RESEARCH FOUNDATION, INCORPORATED, priority 2011, dated 2016)

Experiments:
Assay type in all cases: cell-based, Escherichia coli
XW118 (LY180 ucpA::kan) = assay: pH-controlled batch fermentation (10% xylose)
Description: (§1) The effects of UcpA on growth, ethanol production, and furfural metabolism were investigated in more detail during pH-controlled batch fermentation in mineral salt medium (AM1 medium containing 100 g xylose liter^−1, 0.1 mM IPTG and 12.5 μg ml^−1 ampicillin for all cultures harboring plasmids; furfural as indicated; inoculum of 22 mg dcw liter^−1) as previously described (Wang et al., 2011b). Ethanol (retention time 1.1 min) and furfuryl alcohol (retention time 6.2 min) were measured using an Agilent 6890N gas chromatograph (Santa Clara, Calif.) (Miller et al., 2009b). Furoic acid (retention time of 51.2 min) and sugars were measured by high-performance liquid chromatography (Geddes et al., 2010a). Furfural was measured using a Beckman-Coulter DU 800 spectrophotometer (Martinez et al., 2000a).

E. coli W = assay: pH-controlled batch fermentation (10% xylose)
E. coli W/pTrc99A = assay: pH-controlled batch fermentation (10% xylose); settings: 10 mM furfural
E. coli W/pLOI4856 = assay: pH-controlled batch fermentation (10% xylose); settings: 10 mM furfural
LY180/pLOI4856 = assay: pH-controlled batch fermentation (10% xylose)
Description: (§2) Seed pre-cultures of strains containing pTrc99A or pLOI4856 were grown from plates using sealed culture tubes containing AM1 medium (20 g liter^−1 xylose, 12.5 mg liter^−1 ampicillin). After incubation for 16 h, pre-inocula were diluted into 500-ml fermentation vessels containing 300 ml AM1 media (100 g liter^−1 xylose, 1 mM betaine, 0.1 mM IPTG, 12.5 μg ml^−1 ampicillin) to provide a starting density of 13.2 mg dcw. After 24 h growth, these seed cultures were used to provide a starting inoculum for batch fermentations (AM1 medium, 100 g liter^−1 xylose, 12.5 μg ml^−1 ampicillin, 0.1 mM IPTG, 13.2 mg dcw initial density, and furfural). Fermentations were maintained at pH 6.5 […] by the automatic addition of KOH as previously described (Miller et al., 2009b). Ethanol was measured using an Agilent 6890N gas chromatograph (Palo Alto, Calif.) equipped with a flame ionization detector and a 15-meter HP-Plot Q Megabore column. Furfural concentration was monitored using a Beckman DU spectrophotometer (Martinez et al., 2000b; Miller et al., 2009b). Organic acids and xylose were measured by high-performance liquid chromatography (Miller et al., 2009b).
as §1

LY180/pTrc99A = assay: pH-controlled batch fermentation (10% xylose)
Description: as §2, §1

LY180 (pLOI4856) [1] = assay: Furfural toxicity / MIC in tube cultures, ucpA plasmid; settings: Escherichia coli, 48 h, read-out: MIC of furfural
Description: (§3) Furfural toxicity was measured in tube cultures (13 mm by 100 mm) containing 4 ml of AM1 medium with 50 g liter^−1 xylose, 12.5 mg liter^−1 ampicillin, furfural, and other supplements as indicated (Miller et al., 2009a, b). Cultures were inoculated to an initial density of 22 mg dcw liter^−1. IPTG (0.1 mM) was included for fucO induction. Cell mass was measured at 550 nm after incubation for 48 h (37° C.). For cysteine supplement experiment, the culture condition was the same but included 0.1 mM cysteine as an amendment.
(§4) Derivatives of LY180 containing these plasmids were tested for furfural tolerance with (0.1 mM IPTG) and without IPTG induction using an MIC assay (Miller et al., 2009a; Miller et al., 2010; Wang et al., 2011b).

LY180 (pLOI4856) [2] = assay: In vivo (whole cell) furfural reduction; settings: plasmid copies of ucpA; similar to the vector control
Description: In vivo furfural reduction was measured during incubation in AM1 medium containing 10 mM furfural and 50 g liter^−1 xylose. Cells were pre-incubated with chloramphenicol (40 mg liter^−1) for 1 h to arrest growth (0.88 mg dcw cells ml^−1), prior to the addition of furfural. Furfural concentration was measured as previously described using a Beckman spectrophotometer DU800 (Martinez et al., 2000b).

LY180 = assay: pH-controlled batch fermentation (10% xylose)
LY180(pTrc99A) = assay: Furfural toxicity / MIC in tube cultures, vector control; settings: Escherichia coli, 48 h, read-out: MIC of furfural
Description: as §3, §4

[3] = system: XW137 (E. coli W ucpA::kan); assay: pH-controlled batch fermentation (10% xylose)
[4] = 15 mM furfural, batch fermentation of xylose to ethanol

Q: Which “Cell Yield” value (XW118 (LY180 ucpA::kan); 8 mM furfural) does the source give for O=Cc1ccco1 [furfural] here?
A: Its value is 4.0 ± 0.1 g/L.

Q: And the “Furfural-dependent slow growth Duration” value (XW118 (LY180 ucpA::kan); 8 mM furfural)?
A: The value was 55 ± 2 h.

Q: What about the “Furfural-dependent slow growth μ” value (XW118 (LY180 ucpA::kan); 8 mM furfural) of the same compound?
A: Its value is 0.01 ± 0.01 h⁻¹.

Q: What about the “μ Max” value (XW118 (LY180 ucpA::kan); 8 mM furfural) of the same compound?
A: The value was 0.14 ± 0.01 h⁻¹.

Q: And the “Cell Yield” value (XW118 (LY180 ucpA::kan); 10 mM furfural)?
A: Its value is 0.04 ± 0.01 g/L.

Q: What about the “Furfural-dependent slow growth Duration” value (XW118 (LY180 ucpA::kan); 10 mM furfural) of the same compound?
A: The value was greater than 72 h.

Q: What about the “Furfural-dependent slow growth μ” value (XW118 (LY180 ucpA::kan); 10 mM furfural) of the same compound?
A: Its value is less than 0.04 h⁻¹.

Q: And the “μ Max” value (XW118 (LY180 ucpA::kan); 10 mM furfural)?
A: The value was less than 0.04 h⁻¹.

Q: And the “Cell Yield” value (E. coli W; 8 mM furfural)?
A: Its value is 1.9 ± 0.1 g/L.

Q: And the “Furfural-dependent slow growth Duration” value (E. coli W; 8 mM furfural)?
A: The value was 13 ± 1 h.

Q: And the “Furfural-dependent slow growth μ” value (E. coli W; 8 mM furfural)?
A: Its value is 0.18 ± 0.01 h⁻¹.

Q: What about the “μ Max” value (E. coli W; 8 mM furfural) of the same compound?
A: The value was 0.19 ± 0.01 h⁻¹.

Q: What about the “Cell Yield” value (E. coli W; 10 mM furfural) of the same compound?
A: The value was 2.0 ± 0.1 g/L.

Q: And the “Furfural-dependent slow growth Duration” value (E. coli W; 10 mM furfural)?
A: Its value is 21 ± 1 h.

Q: And the “Furfural-dependent slow growth μ” value (E. coli W; 10 mM furfural)?
A: The value was 0.06 ± 0.02 h⁻¹.

Q: And the “μ Max” value (E. coli W; 10 mM furfural)?
A: The value was 0.20 ± 0.02 h⁻¹.

Q: What about the “Cell Yield” value (E. coli W/pTrc99A) of the same compound?
A: The value was 2.0 ± 0.3 g/L.

Q: What about the “Furfural-dependent slow growth Duration” value (E. coli W/pTrc99A) of the same compound?
A: The value was 26 ± 4 h.

Q: What about the “Furfural-dependent slow growth μ” value (E. coli W/pTrc99A) of the same compound?
A: The value was 0.03 ± 0.01 h⁻¹.

Q: What about the “μ Max” value (E. coli W/pTrc99A) of the same compound?
A: The value was 0.13 ± 0.01 h⁻¹.

Q: What about the “Cell Yield” value (E. coli W/pLOI4856) of the same compound?
A: Its value is 2.5 ± 0.3 g/L.

Q: And the “Furfural-dependent slow growth Duration” value (E. coli W/pLOI4856)?
A: The value was 16 ± 2 h.

Q: And the “Furfural-dependent slow growth μ” value (E. coli W/pLOI4856)?
A: The value was 0.07 ± 0.01 h⁻¹.

Q: And the “μ Max” value (E. coli W/pLOI4856)?
A: The value was 0.18 ± 0.02 h⁻¹.

Q: What about the “Cell Yield” value (LY180/pLOI4856; 10 mM furfural) of the same compound?
A: The value was 3.6 ± 0.1 g/L.

Q: What about the “Furfural-dependent slow growth Duration” value (LY180/pLOI4856; 10 mM furfural) of the same compound?
A: The value was 22 ± 2 h.

Q: What about the “Furfural-dependent slow growth μ” value (LY180/pLOI4856; 10 mM furfural) of the same compound?
A: Its value is 0.09 ± 0.01 h⁻¹.

Q: What about the “μ Max” value (LY180/pLOI4856; 10 mM furfural) of the same compound?
A: Its value is 0.14 ± 0.01 h⁻¹.

Q: What about the Final ethanol yield (LY180/pLOI4856; 15 mM furfural, 100 g liter^−1 xylose) of the same compound?
A: The Final ethanol yield was “approximately 90 % of the theoretical maximum”.

Q: What about the “Growth lag in the presence of furfural” value (LY180/pLOI4856; [4]) of the same compound?
A: The value was 24 h.

Q: And the “Cell Yield” value (LY180/pTrc99A; 10 mM furfural)?
A: The value was 0.06 ± 0.01 g/L.

Q: And the “Furfural-dependent slow growth Duration” value (LY180/pTrc99A; 10 mM furfural)?
A: Its value is greater than 72 h.

Q: And the “Furfural-dependent slow growth μ” value (LY180/pTrc99A; 10 mM furfural)?
A: Its value is less than 0.04 h⁻¹.

Q: And the “μ Max” value (LY180/pTrc99A; 10 mM furfural)?
A: The value was less than 0.04 h⁻¹.

Q: And the “Growth in the presence of furfural” value (LY180/pTrc99A; [4])?
A: Its value is “unable to grow”.

Q: And the MIC (LY180 (pLOI4856) [1])?
A: The MIC was 15 mM.

Q: And the “Whole-cell specific activity (furfural reductase)” value (LY180 (pLOI4856) [2])?
A: The value was less than 0.10 U mg dcw^−1.

Q: And the “Cell Yield” value (LY180; 8 mM furfural)?
A: The value was 4.0 ± 0.1 g/L.

Q: And the “Furfural-dependent slow growth μ” value (LY180; 8 mM furfural)?
A: The value was 0.09 ± 0.01 h⁻¹.

Q: And the “μ Max” value (LY180; 8 mM furfural)?
A: The value was 0.16 ± 0.01 h⁻¹.

Q: And the “Cell Yield” value (LY180; 10 mM furfural)?
A: The value was 0.08 ± 0.02 g/L.

Q: What about the “Furfural-dependent slow growth Duration” value (LY180; 10 mM furfural) of the same compound?
A: The value was greater than 72 h.

Q: And the “Furfural-dependent slow growth μ” value (LY180; 10 mM furfural)?
A: Its value is less than 0.04 h⁻¹.

Q: What about the “μ Max” value (LY180; 10 mM furfural) of the same compound?
A: The value was less than 0.04 h⁻¹.

Q: What about the MIC (LY180(pTrc99A)) of the same compound?
A: Its MIC is 10 mM.

Q: What about the “Cell Yield” value ([3]; 8 mM furfural) of the same compound?
A: Its value is 1.9 ± 0.1 g/L.

Q: What about the “Furfural-dependent slow growth Duration” value ([3]; 8 mM furfural) of the same compound?
A: The value was 16 ± 3 h.

Q: And the “Furfural-dependent slow growth μ” value ([3]; 8 mM furfural)?
A: The value was 0.11 ± 0.02 h⁻¹.

Q: And the “Cell Yield” value ([3]; 10 mM furfural)?
A: The value was 1.9 ± 0.1 g/L.

Q: And the “Furfural-dependent slow growth Duration” value ([3]; 10 mM furfural)?
A: Its value is 37 ± 2 h.

Q: What about the “Furfural-dependent slow growth μ” value ([3]; 10 mM furfural) of the same compound?
A: Its value is 0.02 ± 0.01 h⁻¹.

Q: And the “μ Max” value ([3]; 10 mM furfural)?
A: Its value is 0.12 ± 0.02 h⁻¹.
